Measured values: US20070212705A1, “P[…]-D CARBOX[…], EXPRESSION AND ACTIVITY” (priority 2005, published 2007)

Columns and labels:
E. coli LDC = E. coli LDC (Escherichia coli, UniProt P76008); experiment: LDC assay (tetrapeptide cleavage, Amplex Red detection) with E. coli LDC; assay type: biochemical
Experimental: (§1) The assay consists of two parts: (i) cleavage of peptide substrate by LDC enzyme, and (ii) detection of the D-Ala cleavage product using Amplex Red. Conditions for E. coli LDC cleavage were established using a modification of conditions presented by Templin et al. (1999). The cleavage assay was assembled in black 96 half area flat bottom plates (Costar, 3694) (Corning Life Sciences, Acton, Mass.) and consisted of LDC at the indicated concentration in 30 μl (microliters) of 100 mM (milliMolar) Tris-HCl pH 8.5 containing 25 μg/ml of bovine serum albumin (B4287 Sigma, St. Louis, Mo.). “Tetrapeptide Lys” substrate L-Ala-γ-D-Glu-L-Lys-D-Ala was synthesized by SynPep, Inc. (Dublin, Calif.). […] Inhibitor compounds were added to the enzyme in 2 μl of 30% dimethyl sulfoxide and incubated for 10 minutes at room temperature, prior to the addition of tetrapeptide. The negative control received 2 μl of 30% dimethyl sulfoxide alone without any compound.
(§2) The principle of the detection system is oxidation of D-Ala by the enzyme D-amino acid oxidase to produces hydrogen peroxide. […] The detection reaction was incubated for 30 minutes at 37° C., and the plates were read on a SpectraMax Gemini (excitation 530 nm, emission 590 nm) (Molecular Devices, Sunnyvale, Calif.). […]

PA LDC = biological target: T1, PA LDC (Pseudomonas aeruginosa, UniProt Q9HTZ1); experiment: LDC assay (tetrapeptide Lys cleavage, Amplex Red detection of D-Ala) with purified PA LDC; assay type: biochemical; details: 10 minutes preincubation at room temperature before tetrapeptide substrate, read-out: IC50, inhibition of PA LDC
T1 construct: hexahistidine (pET14b N-terminal leader) (N); made in house; host or cells: E. coli BL21 (plasmid pPALDC1, pET14b)
Experimental: as §1, §2

LDC = LDC (Escherichia coli, UniProt P76008); details: Templin et al., 1999; cited from earlier work
LDC, sequence (P76008 whole entry): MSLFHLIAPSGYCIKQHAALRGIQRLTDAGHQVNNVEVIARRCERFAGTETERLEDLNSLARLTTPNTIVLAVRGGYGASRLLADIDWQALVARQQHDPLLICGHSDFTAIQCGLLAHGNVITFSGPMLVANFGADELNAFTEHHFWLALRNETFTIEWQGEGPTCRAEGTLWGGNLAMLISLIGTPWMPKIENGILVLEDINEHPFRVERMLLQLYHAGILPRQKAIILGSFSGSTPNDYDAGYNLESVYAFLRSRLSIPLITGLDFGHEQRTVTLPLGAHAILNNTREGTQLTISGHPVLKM

E. coli LDC, sequence (P76008 whole entry): as above
T1 sequence (Q9HTZ1 whole entry): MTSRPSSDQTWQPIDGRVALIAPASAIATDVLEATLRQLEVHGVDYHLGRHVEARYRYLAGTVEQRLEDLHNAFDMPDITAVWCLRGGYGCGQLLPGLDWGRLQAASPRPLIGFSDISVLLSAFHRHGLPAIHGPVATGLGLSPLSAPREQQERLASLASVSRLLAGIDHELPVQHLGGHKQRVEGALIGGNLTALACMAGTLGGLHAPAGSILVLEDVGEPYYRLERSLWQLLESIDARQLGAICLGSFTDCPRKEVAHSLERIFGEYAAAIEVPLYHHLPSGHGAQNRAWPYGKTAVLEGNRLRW

SMILES	IC50 (E. coli LDC)	IC50 (PA LDC)	Inhibition of LDC (LDC)
O=C(Sc1nc2ccccc2nc1SC(=O)c1cc2ccccc2o1)c1cc2ccccc2o1 [2-Benzofurancarbothioic acid, S,S′-2,3-quinoxalinediyl ester]	1.4 µM	0.1 µM	
O=C(O)C=CC(=O)c1ccc2c(c1)NC(=O)CO2 [3,4-dihydro-g,3-dioxo-2H-1,4-Benzoxazine-6-crotonic acid]	12 µM	170 µM	
N[C@H](CCOc1ccc(/C(=N/O)C(=O)N[C@H]2CN([C@@H](C(=O)O)c3ccc(O)cc3)C2=O)cc1)C(=O)O [Nocardicin A]			inhibited
